Results taken from patent US6093732A, “4-hydroxyquinoline-3-carboxamides and hydrazides as antiviral agents” (Pharmacia & Upjohn Company, priority 1998, dated 2000).

Tests used:
Type in all cases: biochemical
[1] = target: VZV polymerase (Varicella-zoster virus, UniProt P09252); assay: VZV polymerase assay (procedure similar to the HCMV polymerase SPA); details: Table 1, read-out: Antiviral Selective Polymerase IC50 Values, VZV
Procedure: (§1) The HCMV polymerase assay is performed using a scintillation proximity assay (SPA) as described in several references, such as N. D. Cook, et al., Pharmaceutical Manufacturing International, pages 49-53 (1992); K. Takeuchi, Laboratory Practice, September issue (1992); U.S. Pat. No. 4,568,649 (1986); which are incorporated by reference herein. Reactions are performed in 96-well plates. The assay is conducted in 100 μl volume with 5.4 mM HEPES (pH 7.5), 11.7 mM KCl, 4.5 mM MgCl2, 0.36 mg/ml BSA, and 90 nM ^3 H-dTTP. Assays are run with and without CHAPS, (3-[(3-Cholamidopropyl)-dimethylammonio]-1-propane-sulfonate) at a final concentration of 2 mM. HCMV polymerase is diluted in enzyme dilution buffer containing 50% glycerol, 250 mM NaCl, 10 mM HEPES (pH 7.5), 100 μg/ml BSA, and 0.01% sodium azide. The HCMV polymerase, which is expressed in recombinant baculovirus-infected SF-9 cells and purified according to literature procedures, is added at 10% (or 10 μl) of the final reaction volume, i.e., 100 μl. Compounds are diluted in 50% DMSO and 10 μl are added to each well. Control wells contain an equivalent concentration of DMSO. Unless noted otherwise, reactions are initiated via the addition of 6 nM biotinylated poly(dA)-oligo(dT) template/primer to reaction mixtures containing the enzyme, substrate, and compounds of interest. Plates are incubated in a 25° C. or 37° C. H2 O bath and terminated via the addition of 40 μl/reaction of 0.5 M EDTA (pH 8) per well. Reactions are terminated within the time-frame during which substrate incorporation is linear and varied depending upon the enzyme and conditions used, i.e., 30 min. for HCMV polymerase. Ten μl of streptavidin-SPA beads (20 mg/ml in PBS/10% glycerol) are added following termination of the reaction. Plates are incubated 10 min. at 37° C., then equilibrated to room temperature, and counted on a Packard Topcount. Linear regressions are performed and IC50 's are calculated using computer software.
(§2) A modified version of the above HCMV polymerase assay is performed as described above, but with the following changes: Compounds are diluted in 100% DMSO until final dilution into assay buffer. In the previous assay, compounds are diluted in 50% DMSO. 4.5 mM dithiotherotol (DTT) is added to the polymerase buffer. […] Other viral polymerase assays are performed using procedures similar to those described above.

[2] = target: T1, HCMV polymerase (Human cytomegalovirus, UniProt P08546); assay: HCMV polymerase scintillation proximity assay (SPA), modified version; details: CMV polymerase; Table 1; modified assay with 4.5 mM DTT, compounds in 100% DMSO; read-out: Antiviral Selective Polymerase IC50 Values, CMV
T1 construct: made in house; host or cells: recombinant baculovirus-infected SF-9 cells
T1 sequence (P08546 whole entry): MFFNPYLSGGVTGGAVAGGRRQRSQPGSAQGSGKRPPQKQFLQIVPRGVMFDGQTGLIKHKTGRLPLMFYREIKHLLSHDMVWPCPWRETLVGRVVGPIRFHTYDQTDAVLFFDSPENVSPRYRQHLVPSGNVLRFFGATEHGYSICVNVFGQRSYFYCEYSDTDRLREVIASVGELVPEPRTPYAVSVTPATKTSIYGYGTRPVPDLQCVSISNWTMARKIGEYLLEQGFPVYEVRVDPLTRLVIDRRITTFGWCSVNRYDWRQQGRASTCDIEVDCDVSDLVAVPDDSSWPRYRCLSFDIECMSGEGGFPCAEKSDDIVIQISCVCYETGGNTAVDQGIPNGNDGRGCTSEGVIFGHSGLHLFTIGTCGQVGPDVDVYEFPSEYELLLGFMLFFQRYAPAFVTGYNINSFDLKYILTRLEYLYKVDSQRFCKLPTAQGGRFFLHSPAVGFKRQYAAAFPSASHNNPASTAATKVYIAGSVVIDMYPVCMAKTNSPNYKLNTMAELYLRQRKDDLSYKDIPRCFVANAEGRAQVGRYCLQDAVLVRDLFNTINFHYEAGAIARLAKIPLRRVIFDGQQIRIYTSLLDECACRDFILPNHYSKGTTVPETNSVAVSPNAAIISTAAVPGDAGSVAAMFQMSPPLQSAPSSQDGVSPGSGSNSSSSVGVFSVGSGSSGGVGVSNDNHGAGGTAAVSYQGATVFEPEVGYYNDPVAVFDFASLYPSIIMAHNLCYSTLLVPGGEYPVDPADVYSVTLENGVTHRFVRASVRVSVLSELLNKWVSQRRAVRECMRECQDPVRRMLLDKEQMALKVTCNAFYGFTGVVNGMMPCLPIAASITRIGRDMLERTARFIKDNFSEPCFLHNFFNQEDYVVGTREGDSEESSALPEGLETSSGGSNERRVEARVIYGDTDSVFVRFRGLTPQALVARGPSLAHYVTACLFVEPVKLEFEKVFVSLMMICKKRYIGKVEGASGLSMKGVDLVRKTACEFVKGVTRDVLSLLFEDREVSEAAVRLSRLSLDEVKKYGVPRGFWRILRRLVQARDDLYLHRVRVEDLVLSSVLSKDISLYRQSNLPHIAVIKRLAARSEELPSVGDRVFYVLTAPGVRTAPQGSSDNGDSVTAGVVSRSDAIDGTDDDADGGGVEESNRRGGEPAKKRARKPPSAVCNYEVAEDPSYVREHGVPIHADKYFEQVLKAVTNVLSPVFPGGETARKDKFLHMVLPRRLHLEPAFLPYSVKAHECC
Outline: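 Recombinant polymerase (baculovirus/SF-9) in 5.4 mM HEPES pH 7.5, 11.7 mM KCl, 4.5 mM MgCl2, 0.36 mg/ml BSA, 90 nM 3H-dTTP, ±2 mM CHAPS; started with 6 nM biotinylated poly(dA)-oligo(dT), 25° C or 37° C, EDTA-stopped in linear range (30 min for HCMV). Streptavidin-SPA read; IC50 by linear regression. Modified version: 100% DMSO compound dilution, 4.5 mM DTT added.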

[3] = target: HSV polymerase (Human herpesvirus 1, UniProt P04293); assay: HSV polymerase assay (procedure similar to the HCMV polymerase SPA); details: Table 1, read-out: Antiviral Selective Polymerase IC50 Values, HSV
HSV polymerase, sequence (P04293 whole entry): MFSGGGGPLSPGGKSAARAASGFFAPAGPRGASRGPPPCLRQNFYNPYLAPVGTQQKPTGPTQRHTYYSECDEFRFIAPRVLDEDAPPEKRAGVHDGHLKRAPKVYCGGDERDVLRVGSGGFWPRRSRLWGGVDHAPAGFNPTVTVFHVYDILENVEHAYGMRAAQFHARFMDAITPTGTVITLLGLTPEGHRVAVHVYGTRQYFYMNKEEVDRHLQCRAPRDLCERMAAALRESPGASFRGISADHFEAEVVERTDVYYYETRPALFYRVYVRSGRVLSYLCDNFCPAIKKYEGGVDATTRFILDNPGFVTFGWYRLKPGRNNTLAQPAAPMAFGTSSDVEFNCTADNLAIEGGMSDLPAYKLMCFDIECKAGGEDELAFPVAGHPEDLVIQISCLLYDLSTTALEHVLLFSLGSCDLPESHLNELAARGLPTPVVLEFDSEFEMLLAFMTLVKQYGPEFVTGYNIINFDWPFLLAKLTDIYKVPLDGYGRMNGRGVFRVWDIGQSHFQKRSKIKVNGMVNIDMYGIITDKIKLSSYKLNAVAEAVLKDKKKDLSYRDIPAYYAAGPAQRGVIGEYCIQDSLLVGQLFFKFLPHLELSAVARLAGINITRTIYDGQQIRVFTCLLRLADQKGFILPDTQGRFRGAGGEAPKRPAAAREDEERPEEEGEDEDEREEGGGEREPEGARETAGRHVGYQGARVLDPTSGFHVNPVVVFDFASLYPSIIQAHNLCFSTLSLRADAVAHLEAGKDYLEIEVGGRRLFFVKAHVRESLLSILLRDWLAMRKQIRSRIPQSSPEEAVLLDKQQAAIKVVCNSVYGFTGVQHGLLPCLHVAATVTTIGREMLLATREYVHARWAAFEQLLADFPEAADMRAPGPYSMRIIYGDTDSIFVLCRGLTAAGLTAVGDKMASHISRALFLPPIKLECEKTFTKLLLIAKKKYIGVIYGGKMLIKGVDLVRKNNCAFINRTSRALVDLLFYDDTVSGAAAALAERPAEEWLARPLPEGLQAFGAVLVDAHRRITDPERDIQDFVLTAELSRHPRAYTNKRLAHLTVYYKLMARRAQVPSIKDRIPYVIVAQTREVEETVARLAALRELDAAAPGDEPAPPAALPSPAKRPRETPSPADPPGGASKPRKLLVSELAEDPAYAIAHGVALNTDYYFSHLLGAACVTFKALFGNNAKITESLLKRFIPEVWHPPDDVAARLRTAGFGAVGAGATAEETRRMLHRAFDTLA
Procedure: as §1, §2

VZV polymerase, sequence (P09252 whole entry): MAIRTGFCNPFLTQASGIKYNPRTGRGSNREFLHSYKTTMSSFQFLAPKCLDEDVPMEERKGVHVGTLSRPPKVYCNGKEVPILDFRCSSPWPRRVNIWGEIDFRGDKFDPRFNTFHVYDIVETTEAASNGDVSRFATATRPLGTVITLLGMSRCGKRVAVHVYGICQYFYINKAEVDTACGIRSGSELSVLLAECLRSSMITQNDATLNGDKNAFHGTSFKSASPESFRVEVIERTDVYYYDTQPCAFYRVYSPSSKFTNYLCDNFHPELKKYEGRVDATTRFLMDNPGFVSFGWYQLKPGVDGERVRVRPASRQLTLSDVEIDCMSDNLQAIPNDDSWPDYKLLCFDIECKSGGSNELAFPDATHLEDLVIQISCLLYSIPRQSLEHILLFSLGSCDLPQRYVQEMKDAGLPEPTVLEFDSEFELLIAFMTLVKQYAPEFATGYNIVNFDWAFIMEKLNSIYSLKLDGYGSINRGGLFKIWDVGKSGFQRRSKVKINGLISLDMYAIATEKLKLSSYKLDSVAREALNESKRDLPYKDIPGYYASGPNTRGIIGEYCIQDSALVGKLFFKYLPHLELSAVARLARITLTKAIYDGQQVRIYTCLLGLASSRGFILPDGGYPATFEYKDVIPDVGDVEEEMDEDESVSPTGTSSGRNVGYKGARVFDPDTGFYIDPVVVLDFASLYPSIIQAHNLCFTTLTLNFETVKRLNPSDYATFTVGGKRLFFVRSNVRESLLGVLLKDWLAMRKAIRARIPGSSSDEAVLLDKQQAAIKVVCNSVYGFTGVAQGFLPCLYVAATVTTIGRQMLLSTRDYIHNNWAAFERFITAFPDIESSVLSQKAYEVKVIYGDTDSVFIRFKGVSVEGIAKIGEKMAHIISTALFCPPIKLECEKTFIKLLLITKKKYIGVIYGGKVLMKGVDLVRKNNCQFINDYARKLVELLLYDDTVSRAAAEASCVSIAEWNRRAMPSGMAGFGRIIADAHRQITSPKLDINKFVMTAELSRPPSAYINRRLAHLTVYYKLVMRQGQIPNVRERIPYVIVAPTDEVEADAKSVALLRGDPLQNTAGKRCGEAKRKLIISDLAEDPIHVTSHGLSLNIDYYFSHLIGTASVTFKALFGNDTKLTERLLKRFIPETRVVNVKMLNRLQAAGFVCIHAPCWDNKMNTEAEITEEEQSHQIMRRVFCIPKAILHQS

Compound | IC50 [1] [µM] | IC50 [2] [µM] | IC50 [3] [µM]
O=C(NCc1ccc(Cl)cc1)c1cnc2c(F)c(F)c(F)c(F)c2c1O [Example 14, N-[(4-Chlorophenyl)methyl]-5,6,7,8-tetrafluoro-4-hydroxy-3-quinolinecarboxamide] | 3.6 | 11.5 | 7.9
CC(O)CCc1ccc2ncc(C(=O)NCc3ccc(Cl)cc3)c(O)c2c1 (stereo not drawn) [Example 157, N-(4-Chlorobenzyl)-4-hydroxy-6-(3-hydroxybutyl)-3-quinolinecarboxamide] | 0.89 | 0.92 | 1.8
O=C(NCc1ccc(Cl)cc1)c1cnc2cc(CCCCO)ccc2c1O [Example 140, N-(4-Chlorobenzyl)-4-hydroxy-7-(4-hydroxybutyl)-3-quinolinecarboxamide] | 1 | 1.4 | 1.7
O=C(NCc1ccc(Cl)cc1)c1cnc2cc(F)ccc2c1O [Example 9, N-[(4-Chlorophenyl)methyl]-7-fluoro-4-hydroxy-3-quinolinecarboxamide] | 2.5 | < 2.3 | < 2.3
O=C(NCc1ccc(Cl)cc1)c1cnc2c(F)cccc2c1O [Example 12, N-[(4-Chlorophenyl)methyl]-8-fluoro-4-hydroxy-3-quinoline-carboxamide] | < 3.1 | 1.4 | 3.4
CS(=O)(=O)OCCCc1cc(F)c2ncc(C(=O)NCc3ccc(Cl)cc3)c(O)c2c1 [Example 142, 3-(3-([(4-Chlorobenzyl)amino]carbonyl}-8-fluoro-4-hydroxy-6-quinolinyl)propyl methanesulfonate] | 2.1 | 3.8 | 2.9
CS(=O)(=O)Nc1ccc2ncc(C(=O)NCc3ccc(Cl)cc3)c(O)c2c1 [Example 29, N-[(4-Chlorophenyl)methyl]-4-hydroxy-6-[(methylsulfonyl)-amino]-3-quinolinecarboxamide] | 25.2 | 34.1 | 70.6
CC(=O)Nc1ccc2ncc(C(=O)NCc3ccc(Cl)cc3)c(O)c2c1 [Example 31, 6-(Acetylamino)-N-[(4-chlorophenyl)methyl]-4-hydroxy-3-quinolinecarboxamide] | 26 | 26.2 | 81.5
N#CCCc1cc(F)c2ncc(C(=O)NCc3ccc(Cl)cc3)c(O)c2c1 [Example 138, N-(4-Chlorobenzyl)-6-(2-cyanoethyl)-8-fluoro-4-hydroxy-3-quinolinecarboxamide] | 2 | 4.7 | 3.5
O=C(NCc1ccc(Cl)cc1)c1cnc2c(F)c(F)c(F)cc2c1O [Example 15, N-[(4-Chlorophenyl)methyl]-6,7,8-trifluoro-4-hydroxy-3-quinolinecarboxamide] | 13.1 | 20.8 | 22
COc1cc(C#CCO)cc2c(O)c(C(=O)NCc3ccc(Cl)cc3)cnc12 [Example 118, N-(4-Chlorobenzyl)-4-hydroxy-6-(3-hydroxy-1-propynyl)-8-methoxy-3-quinolinecarboxamide] | 0.2 | 0.67 | 0.66
CS(=O)(=O)Nc1ccc2c(O)c(C(=O)NCc3ccc(Cl)cc3)cnc2c1 [Example 26, N-[(4-Chlorophenyl)methyl]-4-hydroxy-7-[(methylsulfonyl)-amino]-3-quinolinecarboxamide] | 14 | 17 | 25
COc1ccc2c(O)c(C(=O)NCc3ccc(Cl)cc3)cnc2c1 [Example 7, N-[(4-Chlorophenyl)methyl]-4-hydroxy-7-methoxy-3-quinoline-carboxamide] | 0.7 | 4.9 | 5.5
CC(C)(O)CCc1cc(F)c2ncc(C(=O)NCc3ccc(Cl)cc3)c(O)c2c1 [Example 106, N-(4-Chlorobenzyl)-8-fluoro-4-hydroxy-6-(3-hydroxy-3-methylbutyl)-3-quinolinecarboxamide] | 9.6 | 10.3 | 16.4
O=C(NCc1ccc(Cl)cc1)c1cnc2ccc(CCCO)cc2c1O [Example 144, N-(4-Chlorobenzyl)-4-hydroxy-6-(3-hydroxypropyl)-3-quinolinecarboxamide] | 0.07 | 0.28 | 0.28
CC(=O)Nc1ccc2c(O)c(C(=O)NCc3ccc(Cl)cc3)cnc2c1 [Example 25, 7-(Acetylamino)-N-[(4-chlorophenyl)methyl]-4-hydroxy-3-quinolinecarboxamide] | 8.4 | 13.5 | 18.5
O=C(NCc1ccc(Cl)cc1)c1cnc2ccccc2c1O [Example 6, N-[(4-Chlorophenyl)methyl]-4-hydroxy-3-quinolinecarboxamide] | 0.7 | 7.6 | 2.3
O=C(NCc1ccc(Cl)cc1)c1cnc2ccc(F)cc2c1O [Example 10, N-[(4-Chlorophenyl)methyl]-6-fluoro-4-hydroxy-3-quinoline-carboxamide] | 3.9 | 9.7 | 14
COc1cc(CCCO)cc2c(O)c(C(=O)NCc3ccc(Cl)cc3)cnc12 [Example 120, N-(4-Chlorobenzyl)-4-hydroxy-6-(3-hydroxypropyl)-8-methoxy-3-quinolinecarboxamide] | 0.08 | 0.27 | 0.25
O=C(NCc1ccc(Cl)cc1)c1cnc2ccc(OCCO)cc2c1O [Example 179, N-(4-Chlorobenzyl)-4-hydroxy-6-(2-hydroxyethoxy)-3-quinolinecarboxamide] | 0.66 | 1.8 | 1.4
O=C(NCc1ccc(Cl)cc1)c1cnc2ccc(CN3CCOCC3)cc2c1O [Example 191, N-(4-Chlorobenzyl)-4-hydroxy-6-(4-morpholinylmethyl)-3-quinolinecarboxamide] | 0.64 | 0.5 | 0.63
Nc1ccc2ncc(C(=O)NCc3ccc(Cl)cc3)c(O)c2c1 [Example 28, 6-Amino-N-[(4-chlorophenyl)methyl]-4-hydroxy-3-quinoline-carboxamide] | 8.3 | 18 | 19.7
O=C(NCc1ccc(Cl)cc1)c1cnc2cc(-n3cccc3)ccc2c1O [Example 32, N-[(4-Chlorophenyl)methyl]-4-hydroxy-7-(1-pyrrolyl)-3-quinolinecarboxamide] | 53.8 | 22 | > 100
COCC#Cc1cc(OC)c2ncc(C(=O)NCc3ccc(Cl)cc3)c(O)c2c1 [Example 119, N-(4-Chlorobenzyl)-4-hydroxy-8-methoxy-6-(3-methoxy-1-propynyl)-3-quinolinecarboxamide] | 0.57 | 1.5 | 0.73
O=C(NCc1ccc(Cl)cc1)c1cnc2c(F)cc(C#CCO)cc2c1O [Example 53, N-[(4-Chlorophenyl)methyl]-8-fluoro-4-hydroxy-6-(3-hydroxy-1-propynyl)-3-quinolinecarboxamide] | 0.39 | < 0.78 | 0.64
O=C(NCc1ccc(Cl)cc1)c1cnc2c(F)cc(F)c(F)c2c1O [Example 168, N-[(4-Chlorophenyl)methyl]-5,6,8-trifluoro-4-hydroxy-3-quinolinecarboxamide] | 4.1 | 10 | 8.4
